These results are taken from patent US8268888B2, “Therapy of malignant neoplasias” (priority 2005, dated 2012).

One data set has as its system human tumor cells. The data set is described as follows: Internalisation (uptake) experiments in tumor cells. Type of data set: cell-based. As to the method: Uptake experiments were undertaken to evaluate the affinity of the proposed L-phenylalanine derivatives for the proposed human tumors, and to assess their therapeutic activity in vitro. All experiments were performed fourfold, simultaneously with 250000, 500000 and 10^6 freshly prepared human tumor cells, including human malignant glioma cells, pancreatic prostatic and breast cancer cells. Before experiments, subconfluent cells were trypsinized as described above. The suspension was mixed thoroughly, transferred to a 50-ml centrifuge tube (Falcon®, Becton Dickinson, USA). Cells were centrifuged for 5 min at 200×g; the resulting supernatant was removed and the pellet resuspended in serum-free Dulbecco's Mod Eagle medium and then transferred to Eppendorf tubes at concentrations of 10^6 cells/ml for the uptake investigations. Before incubation with the corresponding radiolabeled phenylalanine, the tumor cells were preincubated for 5 min in 500 μL medium at 37° C. in 1.5-ml Eppendorf centrifuge tubes. Aliquots of 30-50 μL (10^6−1.5×10^6 cpm) freshly prepared radiopharmaceutical were added and cells incubated at 37° C./5% CO2 for 1, 2, 5, 15, 30, 60, 90 and 120 min while shaking. Uptake was stopped with 500 μL ice-cold PBS (pH 7.4) and an additional 3-min in an ice bath, the cells were centrifuged for 2 min at 300×g, the supernatant removed and the pellet washed three time with ice-cold PBS. Cell pellets were counted for radioactivity together with 3 aliquots of standards on a Berthold LB951 counter. The percentage of binding of the radiopharmaceutical was calculated by the formula: (cpm cell pellet/mean cpm radioactive standards)×100. The results were expressed either as percent of the applied dose per 10^6 cells or as cpm/1000 cells for better comparison.

For another data set, the system named is malignant cell lines. The data set is described as follows: Cell survival rate after treatment with 3/4-iodo-L-phenylalanine (cytotoxic/cytostatic effect). Type of data set: cell-based, human. As to the method:
Five human glioma cell lines, one rat glioma cell line, two human prostate cancer cell lines, as well as one human breast cancer cell line, and a melanoma cell line were investigated. The human glioma cell lines Tx 3868 and T 5135 (from primary human glioblastoma multiforme), and the rat C6 glioma cells were provided by the Institute of Human Genetics, University of the Saarland (Homburg, Germany). The human high-grade glioma cells, designated as A1207, M059K and U373MG, the human prostate cancer cells PC3 and […], the pancreatic carcinoma cell line PanC1, the human breast cancer cell line MCF-07 (American Type Culture Collection, Rockville, Md.), and the pancreatic carcinoma cell line PaCa44 (established by Dr Bulow, Mainz, Germany) as well as the melanoma cell lines SK-MEL25 and A101D were purchased commercially or provided by the oncological research laboratory of the University Medical Center of Saarland (Homburg, Germany). […]
Human tumor cells grown on standard glass slides were fixed in 4% neutral buffered formalin and stained with the Giemsa method. The cell number was calculated in 10 consecutive high power fields (×40).

The conditions of data set [1]: rats, cited from earlier work.
For a further data set, the system named is malignant gliomas. The settings on record: cited from earlier work.
In data set [2] the test system is human Tx3868 glioblastoma cells. The data set is described as follows: Radiosensitizing effect: IPA combined with external irradiation in glioblastoma cells. Type of data set: cell-based. The settings on record: for radiosensitizer effect: concomitantly administered therapeutic radiation. As to the method:
Five human glioma cell lines, one rat glioma cell line, two human prostate cancer cell lines, as well as one human breast cancer cell line, and a melanoma cell line were investigated. The human glioma cell lines Tx 3868 and T 5135 (from primary human glioblastoma multiforme), and the rat C6 glioma cells were provided by the Institute of Human Genetics, University of the Saarland (Homburg, Germany). The human high-grade glioma cells, designated as A1207, M059K and U373MG, the human prostate cancer cells PC3 and […], the pancreatic carcinoma cell line PanC1, the human breast cancer cell line MCF-07 (American Type Culture Collection, Rockville, Md.), and the pancreatic carcinoma cell line PaCa44 (established by Dr Bulow, Mainz, Germany) as well as the melanoma cell lines SK-MEL25 and A101D were purchased commercially or provided by the oncological research laboratory of the University Medical Center of Saarland (Homburg, Germany). Cells were cultivated in RPMI-1640 medium or in Dulbecco's modified Eagle medium (sodium pyruvate-free, supplemented with […] and pyridoxine), respectively, supplemented with 10% (v/v) heat-inactivated foetal calf serum (FCS), penicillin (50 U/ml), streptomycin (50 μg/ml), and insulin (50 μg/ml; PromoCell, Heidelberg, Germany). All cell lines were maintained in appropriate flasks in a humidified incubator (5% CO2) at 37° C. Before the experiment, subconfluent cell cultures were trypsinized with a solution of 0.05% trypsin containing 0.02% EDTA but without Ca^2+ and Mg^2+, and resuspended in fresh medium to various cell concentrations after counting by vital staining on a hemocytometer, depending upon the study. Cells were free of mycoplasms. Viability of the cells was >95%.
Evaluation of the cell survival rate after treatment with 3/4-iodo-L-phenylalanine. After development of a confluent lawn of cells, the cultures were exposed to 0.1-5 μmol/ml of the corresponding pharmaceutical for up to 48 hours at 37° C./5% CO2. In a parallel experiment, cells were irradiated using a 6-MeV linear accelerator with doses from 2 to 15 Gy or treated with IPA-131 for comparison of cell survival rate. In order to be able to observe the morphology of the glioma cells, the cells were grown on standard glass slides or in standard culture dishes. Then the medium was removed and the cells were fixed either in 70% ethanol for at least 30 min on ice for flow-cytometric analyses after staining or in 4% neutral buffered formalin for immunohistopathological analyse.

A short description of data set [3]: Acute toxicity (LD50/LD10) in rats. The settings on record: i.p. injection.
The subject of data set [4] is human A1207 and T3868 glioblastoma xenografts. The data set is described as follows: Intracranial human glioma model in RNU rats (survival). Type of data set: in vivo. The following applies: daily in first week then weekly, n=9. As to the method: An in vivo experiment was carried out in an intracranial human glioma model in RNU rats to assess the therapeutic effectiveness of 4-Iodo-L-phenylalanine (IPA) in glioma.
Primary human A1207 and T3868 glioblastoma cells (0.5×10^6 cells) were stereotaxically implanted into the right frontal region of RNU rats (2 mm posterior and 2 mm lateral to the intersection of the sagittal and bregma sutures to a depth of 5 mm) while under chloralhydrate anesthesia. The craniectomy was resealed with bone wax and the scalp closed.
IPA (1 and 5 mg/kg b.w.) was administrated i.p. in rats bearing human glioblastoma xenografts (n=9 in each group), starting at day 1 after stereotaxic implantation.
IPA was administrated daily in the first week after implantation and weekly afterwards. Another six RNU rats were treated with saline and served as control.
Then the following parameters were compared: median survival time, tumor size and histology after biopsy.

For data set [5] the following is noted: rat, in vivo; cited from earlier work.

Read-outs that look alike come from different tables or passages of the source.

On to `N[C@@H](Cc1ccccc1I)C(=O)O` [2-iodo-L-phenylalanine, reference compound], for which the “uptake in neoplastic cells” value in the data set with human tumor cells (compared with IPA and IMA) was “low uptake”. Moreover, the “cytotoxicity in neoplastic cells” value with malignant cell lines (compared with IPA and IMA) was “moderate cytotoxity”.
In the case of `N[C@@H](Cc1ccccc1)C(=O)O` [L-phenylalanine, reference compound], the LD50 (as a rule, the dose expected to kill half of the subjects tested) in data set [1] (i.p. injection, according to the manufacturer) is 5280 mg/kg.
On to `N[C@@H](Cc1ccc([123I])cc1)C(=O)O` [IPA-123, 4-[^123I]iodo-L-phenylalanine], for which the blood-brain barrier passage entry in the data set with malignant gliomas (after intravenous administration) is reported as “crosses”. In the data set on malignant gliomas (certain tumors), the “enrichment in certain tumors (factor)” value is at least 20.
As for `N[C@@H](Cc1cccc(I)c1)C(=O)O` [3-iodo-L-phenylalanine], the radiosensitizer effect entry in data set [2] is reported as “significant intrinsic radiosensitizer effect”.
For the compound `N[C@@H](Cc1ccc(I)cc1)C(=O)O` [IPA, 4-iodo-L-phenylalanine], the induction of necrosis/apoptosis result in data set [2] (0.3 μmol/ml IPA with 10 Gy external radiation, FIG. 7b) is “increased induction of necrosis and additional induction of apoptosis”. The radiosensitizer effect entry in data set [2] is “significant intrinsic radiosensitizer effect”. Also, the “cell survival rate on combining with external irradiation” value in data set [2] (glioma cells, FIGS. 4-6) is “dramatic reduction of cell survival rate”. Besides, the “uptake in human tumor cells” value in the data set on human tumor cells (quantified with 4-[123I]iodo-L-phenylalanine, up to 120 min, FIGS. 1-3) is given as “high uptake”. For the same compound, the “concentration up to which transport capacity did not show saturation” value with human tumor cells (tumor cells) is above 200 µmol/L. Also, the LD10 in data set [3] is above 27 mg/kg. Moreover, the “rats still alive at day 28” value in data set [4] (IPA 1 mg/kg i.p.) is “six out of nine”; in data set [4] (IPA 5 mg/kg i.p.), “seven out of nine”. Further, the “cytostatic effect on primary human glioblastoma cells” value with malignant cell lines (FIG. 4, compared with external irradiation) is “concentration dependent and more pronounced as compared to external irradiation up to 15 Gy”. For the same compound, the LD50 in data set [1] (route not stated) is above 100 mg/kg.
On to `N[C@@H](Cc1ccc(Cl)cc1)C(=O)O` (racemic) [p-chloro-phenylalanine], for which the “effect on growth of developing rats” value in data set [5] was “interferes with the growth of developing rats”.
